Values belong to the compound of their own block, whether it stands above or below them.
How the values were obtained:
[1] = target: T1, p110 alpha PI3K (Homo sapiens, UniProt P42336); assay: p110α (alpha) PI3K binding assay (fluorescence polarization); settings: read-out: IC50 (inhibition of PI3K alpha, p110 alpha)
T1 construct: purchased Upstate Cell Signaling Solutions, Charlottesville, Va
Method: Determination of the PI3 kinase activity of a Formula I compound is possible by a number of direct and indirect detection methods. Certain exemplary compounds described herein were assayed for their p110α (alpha), and other isoform, PI3K binding activity (Example 601) and in vitro activity against tumor cells (Example 602).
Binding Assays: Initial polarization experiments were performed on an Analyst HT 96-384 (Molecular Devices Corp, Sunnyvale, Calif.). […] After an incubation time of 30 minutes at room temperature, the reactions were stopped by the addition of GRP-1 and PIP3-TAMRA probe (Echelon-Inc., Salt Lake City, Utah.) 100 nM and 5 nM final concentrations respectively. Read with standard cut-off filters for the rhodamine fluorophore (λex=530 nm; λem=590 nm) in 384-well black low volume Proxiplates (PerkinElmer, Wellesley, Mass.) Fluorescence polarization values were plotted as a function of the protein concentration, and the EC50 values were obtained by fitting the data to a 4-parameter equation using KaleidaGraph software (Synergy software, Reading, Pa.). This experiment also establishes the appropriate protein concentration to use in subsequent competition experiments with inhibitors.
Inhibitor IC50 values were determined by addition of the 0.04 mg/mL p110 alpha PI3K (final concentration) combined with PIP2 ([…] final concentration) to wells containing 1:3 serial dilutions of the antagonists in a final concentration of […] ATP (Cell Signaling Technology, Inc., Danvers, Mass.) in the polarization buffer. After an incubation time of 30 minutes at room temperature, the reactions were stopped by the addition of GRP-1 and PIP3-TAMRA probe (Echelon-Inc., Salt Lake City, Utah.) 100 nM and 5 nM final concentrations respectively. Read with standard cut-off filters for the rhodamine fluorophore (λex=530 nm; λem=590 nm) in 384-well black low volume proxi plates (PerkinElmer, Wellesley, Mass.) Fluorescence polarization values were plotted as a function of the antagonist concentration, and the IC50 values were obtained by fitting the data to a 4-parameter equation in Assay Explorer software (MDL, San Ramon, Calif.).
Alternatively, inhibition of PI3K was determined in a radiometric assay using purified, recombinant enzyme and ATP at a concentration of 1 uM. The Formula I compound was serially diluted in 100% DMSO. The kinase reaction was incubated for 1 hr at room temperature, and the reaction was terminated by the addition of PBS. IC50 values were subsequently determined using sigmoidal dose-response curve fit (variable slope).

[2] = system: AU565; assay: CellTiter-Glo cell proliferation assay, AU565; assay type: cell-based; settings: Homo sapiens, Breast, mutation status WT
Method: (§1) The in vitro potency of Formula I exemplary compounds was measured by the cell proliferation assay, CellTiter-Glo® Luminescent Cell Viability Assay, commercially available from Promega Corp., Madison, Wis. (Example 602). This homogeneous assay method is based on the recombinant expression of Coleoptera luciferase (U.S. Pat. Nos. 5,583,024; 5,674,713; 5,700,670) and determines the number of viable cells in culture based on quantitation of the ATP present, an indicator of metabolically active cells (Crouch et al (1993) J. Immunol. Meth. 160:81-88; U.S. Pat. No. 6,602,677). The CellTiter-Glo® Assay was conducted in 96 or 384 well format, making it amenable to automated high-throughput screening (HTS) (Cree et al (1995) AntiCancer Drugs 6:398-404). The homogeneous assay procedure involves adding the single reagent (CellTiter-Glo® Reagent) directly to cells cultured in serum-supplemented medium. Cell washing, removal of medium and multiple pipetting steps are not required. The system detects as few as 15 cells/well in a 384-well format in 10 minutes after adding reagent and mixing.
(§2) Efficacy of Formula I compounds were measured by a cell proliferation assay employing the following protocol (Promega Corp. Technical Bulletin TB288; Mendoza et al (2002) Cancer Res. 62:5485-5488):
(§3) 1. An aliquot of 100 μl of cell culture containing about 10^4 cells (PC3, Detroit562, or MDAMB361.1) in medium was deposited in each well of a 384-well, opaque-walled plate.
(§4) 2. Control wells were prepared containing medium and without cells.
(§5) 3. The compound was added to the experimental wells and incubated for 3-5 days.
(§6) 4. The plates were equilibrated to room temperature for approximately 30 minutes.
(§7) 5. A volume of CellTiter-Glo Reagent equal to the volume of cell culture medium present in each well was added.
(§8) 6. The contents were mixed for 2 minutes on an orbital shaker to induce cell lysis.
(§9) 7. The plate was incubated at room temperature for 10 minutes to stabilize the luminescence signal.
(§10) 8. Luminescence was recorded and reported in graphs as RLU=relative luminescence units.
(§11) Alternatively, cells were seeded at optimal density in a 96 well plate and incubated for 4 days in the presence of test compound. Alamar Blue™ was subsequently added to the assay medium, and cells were incubated for 6 hr before reading at 544 nm excitation, 590 nm emission. EC50 values were calculated using a sigmoidal dose response curve fit. […] It is commonly used as a measure of drug potency.
(§12) The anti-proliferative effects of Formula I exemplary compounds were measured by the CellTiter-Glo® Assay against various tumor cell lines, including the following: […]

[3] = system: EVSA-T; assay: CellTiter-Glo cell proliferation assay, EVSA-T; assay type: cell-based; settings: Homo sapiens, Breast, mutation status PTEN
Method: as §1, §2, §3, §4, §5, §6, §7, §8, §9, §10, §11, §12

[4] = system: MDA-MB-361.1; assay: CellTiter-Glo cell proliferation assay, MDA-MB-361.1; assay type: cell-based; settings: Breast, mutation status PI3K
Method: as §1, §2, §3, §4, §5, §6, §7, §8, §9, §10, §11, §12

[5] = system: BT474; assay: CellTiter-Glo cell proliferation assay, BT474; assay type: cell-based; settings: Homo sapiens, BT-474, Breast, mutation status PI3K(amped)
Method: as §1, §2
1. […]
as §9, §10
(§13) Alternatively, cells were seeded at optimal density in a 96 well plate and incubated for 4 days in the presence of test compound. Alamar Blue™ was subsequently added to the assay medium, and cells were incubated for 6 hr before reading at 544 nm excitation, 590 nm emission. EC50 values were calculated using a sigmoidal dose response curve fit. […]
as §12

[6] = system: HCC1954; assay: CellTiter-Glo cell proliferation assay, HCC1954; assay type: cell-based; settings: Homo sapiens, Breast, mutation status PI3K
Method: as §1, §2
1. […]
as §9, §10, §13, §12

[7] = system: KPL4; assay: CellTiter-Glo cell proliferation assay, KPL4; assay type: cell-based; settings: Breast, mutation status PI3K
Method: as §1, §2
1. […]
as §9, §10, §13, §12

[8] = system: MFM223; assay: CellTiter-Glo cell proliferation assay, MFM223; assay type: cell-based; settings: Homo sapiens, MFM-223, Breast, mutation status PI3K
Method: as §1, §2
1. […]
as §9, §10, §13, §12

[9] = system: T47D; assay: CellTiter-Glo cell proliferation assay, T47D; assay type: cell-based; settings: Homo sapiens, Breast, mutation status PI3K
Method: as §1, §2
1. […]
as §9, §10, §13, §12

[10] = system: KM12; assay: CellTiter-Glo cell proliferation assay, KM12; assay type: cell-based; settings: Homo sapiens, Colon, mutation status PTEN
Method: (§14) The in vitro potency of Formula I exemplary compounds was measured by the cell proliferation assay, CellTiter-Glo® Luminescent Cell Viability Assay, commercially available from Promega Corp., Madison, Wis. (Example 602). This homogeneous assay method is based on the recombinant expression of Coleoptera luciferase (U.S. Pat. Nos. 5,583,024; 5,674,713; 5,700,670) and determines the number of viable cells in culture based on quantitation of the ATP present, an indicator of metabolically active cells (Crouch et al (1993) J. Immunol. Meth. 160:81-88; U.S. Pat. No. 6,602,677). […]
(§15) Efficacy of Formula I compounds were measured by a cell proliferation assay employing the following protocol (Promega Corp. Technical Bulletin TB288; Mendoza et al (2002) Cancer Res. 62:5485-5488): […]
as §9, §10, §13

[11] = system: MDST8; assay: CellTiter-Glo cell proliferation assay, MDST8; assay type: cell-based; settings: Colon, mutation status PTEN
Method: as §14, §15, §9, §10, §13

[12] = system: U87MG; assay: CellTiter-Glo cell proliferation assay, U87MG; assay type: cell-based; settings: Homo sapiens, U-87 MG, Glioma, mutation status PTEN
Method: as §14, §15, §9, §10, §13

[13] = system: H2122; assay: CellTiter-Glo cell proliferation assay, H2122; assay type: cell-based; settings: Homo sapiens, NCI-H2122, Lung(NSCLC), mutation status K-RAS
Method: as §1, §2
1. […]
as §9, §10, §13, §12

[14] = system: H520; assay: CellTiter-Glo cell proliferation assay, H520; assay type: cell-based; settings: Homo sapiens, NCI-H520, Lung(NSCLC), mutation status PTEN
Method: as §14, §15, §9, §10, §13

[15] = system: PC3; assay: CellTiter-Glo cell proliferation assay, PC3; assay type: cell-based; settings: Homo sapiens, PC-3, Prostate, mutation status PTEN
Method: as §1, §2
1. […]
as §9, §10, §13, §12

[16] = system: SKBR3; assay: CellTiter-Glo cell proliferation assay, SKBR3; assay type: cell-based; settings: Homo sapiens, SK-BR-3, Breast, mutation status WT
Method: as §14, §15, §9, §10, §13

T1 sequence (P42336 whole entry): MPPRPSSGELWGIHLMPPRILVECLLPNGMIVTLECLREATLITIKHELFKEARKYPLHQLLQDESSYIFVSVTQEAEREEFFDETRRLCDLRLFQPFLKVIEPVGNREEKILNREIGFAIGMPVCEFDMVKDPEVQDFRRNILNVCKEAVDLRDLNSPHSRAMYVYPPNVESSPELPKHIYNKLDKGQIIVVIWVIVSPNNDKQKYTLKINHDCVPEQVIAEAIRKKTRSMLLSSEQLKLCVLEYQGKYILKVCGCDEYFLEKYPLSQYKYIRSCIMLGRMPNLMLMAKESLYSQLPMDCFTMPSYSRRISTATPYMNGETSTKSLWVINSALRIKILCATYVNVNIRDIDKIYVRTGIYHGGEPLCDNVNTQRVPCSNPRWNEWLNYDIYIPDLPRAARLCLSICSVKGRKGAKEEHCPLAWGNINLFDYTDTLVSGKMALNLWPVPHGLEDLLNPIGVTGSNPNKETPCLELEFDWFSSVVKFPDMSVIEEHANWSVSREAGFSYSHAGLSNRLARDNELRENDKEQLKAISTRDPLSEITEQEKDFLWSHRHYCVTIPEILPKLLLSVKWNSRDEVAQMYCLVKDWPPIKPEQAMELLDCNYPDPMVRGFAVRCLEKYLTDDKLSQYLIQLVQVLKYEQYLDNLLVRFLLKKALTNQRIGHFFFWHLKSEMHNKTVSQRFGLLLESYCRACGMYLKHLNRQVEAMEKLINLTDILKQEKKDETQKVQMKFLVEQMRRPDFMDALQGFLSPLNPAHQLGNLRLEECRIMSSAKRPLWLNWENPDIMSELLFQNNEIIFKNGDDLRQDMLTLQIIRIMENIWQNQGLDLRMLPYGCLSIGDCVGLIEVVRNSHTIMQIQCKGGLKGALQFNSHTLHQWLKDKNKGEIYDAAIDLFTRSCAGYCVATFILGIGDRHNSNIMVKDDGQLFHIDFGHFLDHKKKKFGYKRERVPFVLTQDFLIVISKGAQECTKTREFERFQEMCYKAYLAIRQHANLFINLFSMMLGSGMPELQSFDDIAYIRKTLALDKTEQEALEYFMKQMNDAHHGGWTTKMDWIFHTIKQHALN
T1 sequence (P27986 whole entry partner): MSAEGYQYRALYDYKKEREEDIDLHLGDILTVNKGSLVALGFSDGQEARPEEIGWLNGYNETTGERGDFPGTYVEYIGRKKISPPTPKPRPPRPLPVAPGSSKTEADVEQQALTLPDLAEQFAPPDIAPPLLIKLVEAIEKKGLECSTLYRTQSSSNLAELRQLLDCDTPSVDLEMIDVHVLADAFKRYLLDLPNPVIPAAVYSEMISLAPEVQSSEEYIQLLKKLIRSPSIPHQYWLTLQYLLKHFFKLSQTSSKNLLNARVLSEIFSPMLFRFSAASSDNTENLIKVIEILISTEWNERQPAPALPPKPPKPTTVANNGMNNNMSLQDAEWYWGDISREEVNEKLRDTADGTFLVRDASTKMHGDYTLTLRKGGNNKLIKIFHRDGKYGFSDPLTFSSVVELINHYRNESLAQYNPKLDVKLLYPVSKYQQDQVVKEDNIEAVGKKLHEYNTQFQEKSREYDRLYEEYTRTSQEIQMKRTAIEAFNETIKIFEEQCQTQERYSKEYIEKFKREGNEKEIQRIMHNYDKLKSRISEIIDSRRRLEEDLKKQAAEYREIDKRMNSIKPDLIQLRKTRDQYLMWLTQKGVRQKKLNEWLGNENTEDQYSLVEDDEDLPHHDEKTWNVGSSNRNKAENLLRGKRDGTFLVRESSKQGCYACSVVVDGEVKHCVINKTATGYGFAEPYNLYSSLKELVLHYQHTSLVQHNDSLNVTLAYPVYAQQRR

IC50 [1]: 21 nM
SMILES: CC(C)n1ncnc1-c1cc2c(s1)-c1ccc(-c3cccc(C(=O)O)c3)cc1OCC2 [compound 147, 3-(2-(1-isopropyl-1H-1,2,4-triazol-5-yl)-4,5-dihydrobenzo[b]thieno[2,3-d]oxepin-8-yl)benzoic acid]

IC50 [1]: 0.2 nM
SMILES: Nc1nc(-c2cc3c(s2)-c2ccc(C(=O)NCCO)cc2OCC3)n(-c2ccc(F)cc2F)n1 [compound 151, 2-(3-amino-1-(2,4-difluorophenyl)-1H-1,2,4-triazol-5-yl)-N-(2-hydroxyethyl)-4,5-dihydrobenzo[b]thieno[2,3-d]oxepine-8-carboxamide]

IC50 [1]: 58 nM
SMILES: CN(CCC#N)C(=O)c1nc2c(s1)CCOc1cc(-c3cn[nH]c3)ccc1-2 [compound 153, 8-(1H-Pyrazol-4-yl)-4,5-dihydro-6-oxa-3-thia-1-aza-benzo[e]azulene-2-carboxylic acid (2-cyano-ethyl)-methyl-amide]

EC50 [5]: 428 nM
EC50 [6]: 348 nM
EC50 [4]: 1090 nM
EC50 [9]: 145 nM
EC50 [12]: 858 nM
EC50 [13]: 1170 nM
EC50 [14]: 226 nM
EC50 [15]: 145 nM
SMILES: CC(C)n1ncnc1-c1nc2c(s1)CCOc1cc(C3CCNCC3)ccc1-2 [compound 375, 2-(2-isopropyl-2H-[1,2,4]triazol-3-yl)-8-piperidin-4-yl-4,5-dihydro-6-oxa-3-thia-1-aza-benzo[e]azulene]
EC50 [2]: 241 nM
EC50 [3]: 225 nM
EC50 [7]: 151 nM
EC50 [8]: 739 nM
EC50 [10]: 1750 nM
EC50 [11]: 1740 nM

EC50 [5]: 1630 nM
EC50 [6]: 1620 nM
EC50 [4]: 2610 nM
EC50 [16]: 1730 nM
EC50 [9]: 569 nM
EC50 [13]: 10000 nM
EC50 [15]: 3030 nM
SMILES: Cc1nc(-c2nc3c(s2)CCOc2cc(-c4cn(CCO)cn4)ccc2-3)n(C(C)C)n1 [compound 440, 2-{4-[2-(2-Isopropyl-5-methyl-2H-[1,2,4]triazol-3-yl)-4,5-dihydro-6-oxa-3-thia-1-aza-benzo[e]azulen-8-yl]-imidazol-1-yl}-ethanol]
EC50 [2]: 1240 nM
EC50 [3]: 4930 nM
EC50 [7]: 338 nM
EC50 [8]: 4410 nM

EC50 [5]: 638 nM
EC50 [6]: 340 nM
EC50 [4]: 855 nM
EC50 [9]: 185 nM
EC50 [12]: 2090 nM
EC50 [13]: 542 nM
EC50 [14]: 972 nM
EC50 [15]: 185 nM
SMILES: CC(C)n1nc(N)nc1-c1nc2c(s1)CCOc1cc(C3CN(CCS(C)(=O)=O)C3)ccc1-2 [compound 463, 1-Isopropyl-5-{8-[1-(2-methanesulfonyl-ethyl)-azetidin-3-yl]-4,5-dihydro-6-oxa-3-thia-1-aza-benzo[e]azulen-2-yl}-1H-[1,2,4]triazol-3-ylamine]
EC50 [2]: 225 nM
EC50 [3]: 746 nM
EC50 [7]: 103 nM
EC50 [8]: 559 nM
EC50 [10]: 321 nM
EC50 [11]: 1720 nM

More lines, now with the values behind:

SMILES: O=C(c1nc2c(s1)CCOc1cc(-c3cn[nH]c3)ccc1-2)N1CCC[C@@H]1CO [compound 101, ((R)-2-Hydroxymethyl-pyrrolidin-1-yl)-[8-(1H-pyrazol-4-yl)-4,5-dihydro-6-oxa-3-thia-1-aza-benzo[e]azulen-2-yl]-methanone]
IC50 [1]: 31 nM

SMILES: CC(C)N(C)C(=O)c1nc2c(s1)CCOc1cc(-c3cn[nH]c3)ccc1-2 [compound 102, 8-(1H-Pyrazol-4-yl)-4,5-dihydro-6-oxa-3-thia-1-aza-benzo[e]azulene-2-carboxylic acid isopropyl-methyl-amide]
IC50 [1]: 5.1 nM

SMILES: CC(C)N(CCO)C(=O)c1nc2c(s1)CCOc1cc(-c3cn[nH]c3)ccc1-2 [compound 103, 8-(1H-Pyrazol-4-yl)-4,5-dihydro-6-oxa-3-thia-1-aza-benzo[e]azulene-2-carboxylic acid (2-hydroxy-ethyl)-isopropyl-amide]
IC50 [1]: 1.8 nM

SMILES: O=C(NCc1ccc2c(c1)OCCc1sc(-c3ncnn3CC(F)(F)F)nc1-2)c1cn[nH]c1 [compound 106, 1H-Pyrazole-4-carboxylic acid {2-[2-(2,2,2-trifluoro-ethyl)-2H-[1,2,4]triazol-3-yl]-4,5-dihydro-6-oxa-3-thia-1-aza-benzo[e]azulen-8-ylmethyl}-amide]
IC50 [1]: 5.7 nM

SMILES: O=S1(=O)CCN(CCNc2ccc3c(n2)-c2sc(-c4ncnn4-c4ccc(F)cc4F)cc2CCO3)CC1 [compound 109, {2-[2-(2,4-Difluoro-phenyl)-2H-[1,2,4]triazol-3-yl]-4,5-dihydro-6-oxa-1-thia-10-aza-benzo[e]azulen-9-yl}-[2-(1,1-dioxo-1S-thiomorpholin-4-yl)-ethyl]-amine]
IC50 [1]: 1.3 nM

SMILES: CNC(=O)c1ccc2c(c1)OCCc1cc(-c3nc(N)nn3-c3ccc(F)cc3F)sc1-2 [compound 127, 2-(3-amino-1-(2,4-difluorophenyl)-1H-1,2,4-triazol-5-yl)-N-methyl-4,5-dihydrobenzo[b]thieno[2,3-d]oxepine-8-carboxamide]
IC50 [1]: 0.05 nM
EC50 [2]: 37 nM
EC50 [3]: 147 nM
EC50 [4]: 60 nM
